Like-named read-outs stand apart in the source and are kept apart here.
Tested on: murine neural precursor cells (neurosphere cultures)
Assay: HTS of LOPAC library against secondary neurosphere cultures, MTT proliferation assay at 3 μM, day 7 (z score, P value)
Type: cell-based, mouse
[1] = LOPAC screen, neurosphere MTT proliferation, 3 μM, day 7
[2] = yes/no: significantly inhibited neurosphere proliferation (P<0.01) in primary screen
[3] = primary LOPAC screen, 3 μM, MTT, neurosphere proliferation
[4] = yes/no: significantly inhibited neurosphere proliferation in the primary screen
[5] = LOPAC primary screen, neurosphere MTT proliferation, 3 μM, day 7
[6] = yes/no: significantly inhibited neurosphere proliferation in primary screen
[7] = yes/no: significantly inhibited neurosphere proliferation (P<0.01) in the primary screen
[8] = yes = significantly inhibited neurosphere proliferation (P<0.01) in the primary screen
[9] = LOPAC library screen, 3 μM, MTT, secondary neurosphere cultures, day 7
[10] = LOPAC library screen, 3 μM, MTT, neurosphere cultures
[11] = LOPAC library screen at 3 μM, secondary neurosphere cultures, MTT

Cl.Cl.Clc1cccc(N2CCNCC2)c1
Z Score: 0.9516

Cl.NCC(O)C1CCCCCCC1 (centres unmarked) [listing 1 of 2 here]
Z score [1]: −0.575 | Activity [2]: no

Cl.NCC(O)C1CCCCCCC1 (centres unmarked) [listing 2 of 2 here]
Z Score: −0.5747

C[N+]1(C)C2CCC1CC(OC(=O)c1c[nH]c3ccccc13)C2.[I-] (centres unmarked)
Z Score: −0.3436 | Z score [3]: −0.344 | Activity [4]: no

Cl.Fc1ccc(C(OCCCc2c[nH]cn2)c2ccc(F)cc2)cc1
Z Score: −0.01466

C[C@]12CC[C@@H](O)C[C@@H]1CC[C@@H]1[C@@H]2CC[C@]2(C)[C@@H](C(=O)CO)CC[C@@H]12
Z Score: 0.4441 | Z score [5]: 0.444 | Activity [6]: no

CN1C2CCC1CC(OC(c1ccccc1)c1ccc(Cl)cc1)C2.Cl (centres unmarked)
Z Score: −9.672 | Z score [5]: −9.672 | Activity [7]: yes

COc1ccc2[nH]c3c(c2c1)CCNC3 [listing 1 of 2 here]
Z Score: −2.661

COc1ccc2[nH]c3c(c2c1)CCNC3 [listing 2 of 2 here]
Z score [5]: −2.661 | Activity [8]: yes

Nc1ncnc2c1c(-c1ccc(Oc3ccccc3)cc1)cn2C1CCCC1
Z Score: −1.412 | Z score [1]: −1.412 | Activity [2]: no

CC1CCCC=CC2CC(O)CC2C(O)C=CC(=O)O1 (centres unmarked)
Z Score: −11.27 | Z score [5]: −11.274 | Activity [8]: yes

Cl.Nc1ccn([C@@H]2O[C@H](CO)[C@@H](O)[C@@H]2O)c(=O)n1
Z Score [9]: −11.27 | Z score [5]: −11.274 | Activity [7]: yes

COc1ccc2c(c1)[C@]13CCCC[C@@H]1[C@H](C2)N(C)CC3
Z Score: −0.7932 | Z score [5]: −0.793 | Activity [7]: no

O=C(O)CN(CCOCCOCCN(CC(=O)O)CC(=O)O)CC(=O)O
Activity: no | Z Score: 1.507 | Z score: 1.507

NC(N)=Nc1ccc2[nH]c3c(c2c1)C[C@@]1(O)[C@H]2Cc4ccc(O)c5c4[C@@]1(CCN2CC1CC1)[C@H]3O5.O=C(O)C(F)(F)F.O=C(O)C(F)(F)F
Z Score: −0.2037 | Z score [5]: −0.204 | Activity [2]: no

Cl.O[Si](CCCN1CCCCC1)(c1ccc(F)cc1)C1CCCCC1 (centres unmarked)
Z Score [9]: −1.492 | Z score [5]: −1.492 | Activity [2]: no

CC[N+](CC)(CC)CC(=O)Nc1c(C)cccc1C.[Br-]
Z Score [10]: 0.2653 | Z score [5]: 0.265 | Activity [2]: no

Cl.O=C(CCCN1CCC2(CC1)C(=O)N(CCc1ccc(N=C=S)cc1)CN2c1ccccc1)c1ccc(F)cc1
Z Score [11]: −0.4152 | Z score [5]: −0.415 | Activity [8]: no

CNCCc1c[nH]c2ccc(O)cc12.O=C(O)C(=O)O
Z Score: 0.656 | Z score [5]: 0.656 | Activity [8]: no

Cc1ccc(S(=O)(=O)N[C@@H](Cc2ccccc2)C(=O)CCl)cc1
Z Score: 0.3367 | Z score [3]: 0.337 | Activity [4]: no

COC(=O)[C@@H](N)CCCN=C(N)N[N+](=O)[O-].Cl
Z Score [9]: −1.411 | Z score [5]: −1.411 | Activity [8]: no

CCCN(CCC)CCc1c[nH]c2ccc(C(N)=O)cc12.O=C(O)/C=C\C(=O)O
Z Score: −1.73 | Z score [1]: −1.730 | Activity [2]: no

CC(COc1ccc(/C=C/c2ccccc2)cc1)[N+](C)(C)C.[I-] (centres unmarked)
Z Score: −11.13

CC(COc1ccc(/C=C/c2ccccc2)cc1)[N+](C)(C)C (centres unmarked)
Z score [5]: −11.127 | Activity [7]: yes

CN(C)C(N)=NCCC[C@H](N)C(=O)O.Cl
Z Score: −1.373

Cc1ccc(S(=O)(=O)N[C@@H](CCCCN)C(=O)CCl)cc1.Cl
Activity: no | Z Score: 0.004812 | Z score [5]: 0.005

CC(Cc1ccc(O)c(O)c1)C(C)Cc1ccc(O)c(O)c1 (centres unmarked)
Z Score (LOPAC library screen at 3 μM, MTT, secondary neurosphere cultures, screened in singlets): 2.63 | Z score [5]: 2.630 | Activity [8]: no

CCCN1CCc2cc(O)cc3c2[C@H]1Cc1ccc(O)c(O)c1-3
Z score [5]: −2.744 | Activity [7]: yes

CN[C@H](CC(C)C)C(=O)N[C@H]1C(=O)N[C@@H](CC(N)=O)C(=O)N[C@H]2C(=O)N[C@H]3C(=O)N[C@H](C(=O)N[C@H](C(=O)O)c4cc(O)cc(O)c4-c4cc3ccc4O)[C@H](O)c3ccc(c(Cl)c3)Oc3cc2cc(c3O[C@@H]2O[C@H](CO)[C@@H](O)[C@H](O)[C@H]2O[C@H]2C[C@](C)(N)[C@H](O)[C@H](C)O2)Oc2ccc(cc2Cl)[C@H]1O.Cl
Z Score [10]: −0.06352 | Z score [3]: −0.064 | Activity [4]: no

N[C@H](C(=O)O)[C@H]1C[C@@H]1C(=O)O
Z Score: 1.233 | Z score [1]: 1.233 | Activity [2]: no

C[C@H](O)[C@H](O)[C@H]1CNc2nc(N)[nH]c(=O)c2N1.Cl
Z Score [10]: 0.9757 | Z score [3]: 0.976 | Activity [4]: no

CC(N)c1cccc(Cl)c1Cl.Cl (centres unmarked)
Z Score: −2.251

O=C(O)[C@H]1CCCN[C@H]1C(=O)O
Z Score: 0.1553

CCCCCCCCCC(=O)NC(CN1CCOCC1)[C@H](O)c1ccccc1.Cl (some centres unmarked)
Z Score [11]: −1.109

CC[C@@H]1Cc2cc(O)ccc2C2=C1c1ccc(O)cc1C[C@H]2CC
Z Score: −1.053 | Z score [5]: −1.053 | Activity [7]: no

Nc1ncnc2c1ncn2[C@@H]1O[C@H](COP(=O)(O)CP(=O)(O)OP(=O)([O-])[O-])[C@H](O)C1O.[Li+].[Li+] (some centres unmarked)
Z Score [9]: −1.29 | Z score [5]: −1.290 | Activity [8]: no

CCCCCCC(C(C)O)n1cnc2c(N)ncnc21.Cl (centres unmarked)
Z Score [11]: −0.7656 | Z score [5]: −0.766 | Activity [2]: no

5-Bromo-2$$-deoxyuridine
Z Score: 2.58

CCOC(=O)[C@]12CC1/C(=N\O)c1ccccc1O2 (mixture of isomers) [CPCCOEt]
Z Score [11]: −0.8068 | Z score [1]: −0.807

Cl.NCCC[C@](N)(C(=O)O)C(F)F (racemic)
Z Score [11]: −0.4244 | Z score [1]: −0.424 | Activity [2]: no

CC(N)(Cc1ccc(O)c(O)c1)C(=O)O (racemic)
Z Score: −1.894

CCCCCCCCCC(=O)NC(CN1CCOCC1)[C@H](O)c1ccccc1.Cl (mixture of isomers)
Activity: no | Z score [5]: −1.109

NC(Cc1cc(O)c(O)cc1O)C(=O)O (racemic) [6-Hydroxy-DL-DOPA]
Z Score: 1.204 | Z score [5]: 1.204 | Activity [2]: no

CC(N)c1cccc(Cl)c1Cl.Cl (racemic) [(±)-2,3-Dichloro-alpha-methylbenzylamine hydrochloride]
Z score [1]: −2.251 | Activity [2]: no

NC(CP(=O)(O)O)C(=O)O (racemic) [(±)-2-Amino-3-phosphonopropionic acid]
Z score [3]: 1.250 | Activity [4]: no

NC(CCP(=O)(O)O)C(=O)O (racemic) [(±)-2-Amino-4-phosphonobutyric acid]
Z score [3]: 1.893 | Activity [4]: no

NC(CCCP(=O)(O)O)C(=O)O (racemic) [(±)-2-Amino-5-phosphonopentanoic acid]
Z score (168 h, 3 µM): −1.045 | Activity [4]: no

NC(CCCCCP(=O)(O)O)C(=O)O (racemic) [(±)-2-Amino-7-phospheneheptanoic acid]
Z score [3]: −1.020 | Activity [4]: no

CC(N)(Cc1ccc(O)c(O)c1)C(=O)O (racemic) [(±)-3-(3,4-dihydroxyphenyl)-2-methyl-DL-alanine]
Z score (168 h, 3 µM): −1.894 | Activity [8]: no

Br.Oc1cc2c(c(Cl)c1O)CCNCC2c1ccccc1 (racemic) [(±)-6-Chloro-PB hydrobromide]
Z score [5]: −2.267 | Activity [6]: no

Br.CCCN(CCC)C1CCc2ccc(O)cc2C1 (racemic) [(±)-7-Hydroxy-DPAT hydrobromide]
Z score [5]: −11.102 | Activity [7]: yes

Br.CCCN(CCC)C1CCc2cccc(O)c2C1 (racemic) [(±)-8-Hydroxy-DPAT hydrobromide]
Z score [5]: 0.656 | Activity [7]: no

Br.Cc1o[nH]c(=O)c1CC(N)C(=O)O (racemic) [(±)-AMPA hydrobromide]
Z score [5]: −0.427 | Activity [2]: no

CC1CCN=C(N)S1.Cl (racemic) [(±)-AMT hydrochloride]
Z score [5]: −2.366 | Activity [8]: yes

NCC(CC(=O)O)c1ccc(Cl)cc1 (racemic) [(±)-Baclofen]
Z score [1]: −1.069 | Activity [2]: no

COC(=O)C1=C(C)NC(C)=C([N+](=O)[O-])C1c1ccccc1C(F)(F)F (racemic) [(±)-Bay K 8644]
Z score [1]: 0.853 | Activity [2]: no

CN(C)CCC(c1ccc(Br)cc1)c1ccccn1.O=C(O)/C=C\C(=O)O (racemic) [(±)-Brompheniramine maleate]
Z score [5]: −3.530 | Activity [7]: yes

CC(C)(C)NCC(O)COc1cccc2[nH]c(=O)[nH]c12.Cl (racemic) [(±)-CGP-12177A hydrochloride]
Z score [1]: −1.611 | Activity [2]: no

O=C(O)C1CN(CCCP(=O)(O)O)CCN1 (racemic) [(±)-CPP]
Z score [1]: 0.321 | Activity [2]: no

Br.Br.C=CCN1CCc2c(cc(O)c(O)c2Cl)C(c2ccccc2)C1 (racemic) [(±)-Chloro-APB dihydrobromide]
Z score [1]: −0.111 | Activity [2]: no

CN(C)CCC(c1ccc(Cl)cc1)c1ccccn1.O=C(O)/C=C\C(=O)O (racemic) [(±)-Chlorpheniramine maleate]
Activity: no | Z score: −2.116

COc1cc(CC(C)N)c(OC)cc1I.Cl (racemic) [(±)-DOI hydrochloride]
Z score [1]: −1.345 | Activity [2]: no

CNCC(O)c1ccc(O)c(O)c1.Cl (racemic) [(±)-Epinephrine hydrochloride]
Z score [5]: −0.328 | Activity [2]: no

NC1CCN(O)C1=O (racemic) [(±)-HA-966]
Activity: no | Z score [3]: 1.157

From patent US8058243B2, “Method for treating a brain cancer with ifenprodil” (HSC Research and Development Limited Partnership, priority 2006, dated 2011)
